From PubChem BioAssay (NCI) come the findings set out here.

As usually defined, the TGI is the concentration giving total growth inhibition. A lower TGI goes with greater sensitivity of the cells. What is called GI50 is the concentration that inhibits growth by half.

Test in all cases: DTP human tumour cell line panel, 48 h
Assay [1] concerns SN12C renal.
Assay [2] deals with HOP-62 NSCLC.
Assay [3] concerns RPMI-8226 leukemia.
For assay [4], the system named is TK-10 renal.
The subject of assay [5] is UACC-62 melanoma.
In assay [6] the test system is HL-60(TB) leukemia.
Assay [7] relates to SF-539 CNS.
Assay [8] relates to MALME-3M melanoma.
In assay [9] the test system is MDA-MB-231 breast.

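Cells were grown in 96-well plates and exposed to each compound for 48 hours at five concentrations; endpoints were interpolated linearly between bracketing concentrations, or set to the highest concentration if not reached. At the GI50, growth is halved. TGI denotes the concentration required for complete inhibition of growth.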

On to `COc1ccc2c3c([nH]c2c1[N+](=O)[O-])C(C)N(C(=O)/C=C/c1ccccc1)CC3` (stereo not drawn), for which the TGI in [1] was above 100 µM; in assay [2], 70.4 µM; in assay [3], 9.66 µM; in assay [4], above 100 µM; in assay [5], 9.06 µM; in assay [6], 7.01 µM. The TGI in assay [7] came to 23.2 µM.
On to `CC(=O)N1C(=O)C(=O)c2cc(Cl)ccc21`, for which the TGI in assay [1], in [3], in assay [4], in [5], in assay [6] and in assay [7] was above 100 µM throughout. Besides, the TGI in [8] was above 100 µM.
Consider `CCCCCCCCCCSS(=O)(=O)c1ccc(C)cc1`, for which the TGI in assay [1] was determined as 25.1 µM; in assay [2], 40.1 µM; in assay [3], 29.6 µM; in [4], 37.9 µM; in assay [5], 16.1 µM; in [6], 11.6 µM. For the same molecule, the TGI came out at 3.67 µM in assay [7] and 31.3 µM in assay [8].
For `CC(=O)[CH-]C(=O)c1ccccc1.CC(=O)[CH-]C(=O)c1ccccc1.CC(C)CCCC(C)[C@H]1CCC2[C@@H]3CCC4C[C@@H]([O-])CC[C@]4(C)C3CC[C@@]21C.CC(C)CCCC(C)[C@H]1CCC2[C@@H]3CCC4C[C@@H]([O-])CC[C@]4(C)C3CC[C@@]21C.Cl.[Ti+4]` (stereo partly drawn), the GI50 in assay [1] was above 25 µM; in assay [2] it was above 25 µM; in assay [3] it was above 25 µM; in assay [4], above 25 µM; in assay [5], above 25 µM; in assay [6], 8.29 µM. In addition, the results for the GI50 in assay [7] and in assay [8] were above 25 µM and 8.93 µM, respectively. In addition, the TGI is above 25 µM in assay [1]; above 25 µM in [2]; above 25 µM in [3]; above 25 µM in [4]; above 25 µM in assay [5]; 24.9 µM in assay [6]. The TGI in [7] and in [8] was above 25 µM in each case.
Regarding `C=CCCC12CCCC(=O)C1Sc1ccc3ccccc3c12` (stereo not drawn), the TGI in [1] was determined as 54.4 µM; in [2] it was 53.5 µM; in assay [3] it was 42.9 µM; in [4], 51.2 µM; in assay [5], 40 µM; in assay [6], 44.6 µM. Moreover, the TGI in assay [7] turned out to be 28.5 µM; in assay [8] it was 52.7 µM.
With `CC(C)[C@H](COC(C)(C)C)N=CN1CSc2ccccc21`, the TGI was 84.1 µM in assay [1]; above 100 µM in assay [2]; 54 µM in [3]; above 100 µM in [4]; above 100 µM in [5]; 57.1 µM in [6]. The molecule also yielded a TGI in assay [7] of 65.6 µM.
For the molecule `c1ccc(CN2CCC3(CC2)ONC2=NCCN23)cc1`, the GI50 in assay [1] was 27.1 µM; in assay [2], above 100 µM; in assay [9], above 100 µM; in assay [4] it was 72 µM; in assay [5], 70.8 µM; in assay [6], 35.4 µM. Also, the results for the GI50 in assay [7] and in assay [8] were 96.3 µM and above 100 µM, respectively. For the same molecule, the TGI in assay [1] is 82 µM; in assay [2] it was above 100 µM; in [9], above 100 µM; in assay [4], above 100 µM; in assay [5] it was above 100 µM; in [6], above 100 µM. Also, the TGI in [7] and in [8] was above 100 µM throughout.
Turning to `COc1ccc(/C=C2/CCOC2=O)cc1`, the GI50 in assay [1], in assay [2], in assay [9], in assay [4], in assay [5] and in [6] was above 100 µM each time. The GI50 in [7] and in [8] was above 100 µM throughout. Moreover, the TGI in [1], in assay [2], in assay [9], in [4], in [5] and in assay [6] was above 100 µM throughout. The TGI in assay [7] and in assay [8] was above 100 µM each time.
`O=C(CN1C(=O)c2ccccc2C1=O)OC1C=CCCC1` (stereo not drawn): the TGI in [1], in [2], in assay [3], in assay [4], in assay [5] and in assay [6] was above 100 µM throughout. For the same molecule, the TGI in assay [7] and in assay [8] was above 100 µM in each case.
On to `COC(=O)/C=C\C1C(C(=O)OC)C2(C(=O)OC)CCC1(C(=O)OC)N2` (stereo not drawn), for which the TGI in assay [1] worked out at 29.9 µM; in [2], 34.1 µM; in [3], 26.4 µM; in assay [4], 15 µM; in assay [5], 29.8 µM; in [6] it was 6.47 µM. The results for the TGI in [7] and in assay [8] were 32 µM and 15.8 µM, respectively.
On to `COc1ccc2c(CCNS(=O)(=O)c3ccccc3)c(C(C)=O)[nH]c2c1[N+](=O)[O-]`, for which the TGI was above 100 µM in assay [1]; above 100 µM in assay [2]; above 100 µM in assay [3]; above 100 µM in [5]; above 100 µM in assay [6]; 77.7 µM in assay [7].
Turning to `CC[O+]=c1cccc2ssnc1-2`, the TGI in [1], in [2], in [4], in assay [5], in assay [6] and in assay [7] was above 100 µM each time. In [8], the TGI is above 100 µM.
For `CC(=O)C1C(=O)C(=O)N(c2ccc(Cl)cc2C)C1=O` (stereo not drawn), the TGI in assay [1], in assay [2], in assay [4], in [5], in [6] and in [7] was above 100 µM throughout. For the same molecule, in [8], the TGI was above 100 µM.
Consider `CCC1(c2ccncc2)CCC(=O)NC1=O` (stereo not drawn), for which the TGI in assay [1], in [2], in assay [3], in assay [4], in assay [5] and in assay [6] was above 100 µM each time. The TGI in assay [7] and in [8] was above 100 µM in each case.
`CC1=C(CC/C(C)=C/CCC2(C)CCC([C@H](C)C(=O)O)OO2)C(C)(C)CCC1` (stereo partly drawn) (tested in a mixture with another compound): the TGI in [1], in [2], in assay [4], in [6], in assay [7] and in assay [8] was above 100 µM each time.
Consider `O=c1c2ccccc2c(C=NCCNCCO)c2oc3ccccc3n12`, for which the GI50 in [1] is 4.34 µM; in assay [2] it was 13 µM; in [9] it was 11.5 µM; in assay [3] it was 7.67 µM; in [4], 2.73 µM; in [5], 11.6 µM. For the same molecule, the values for the GI50 in [6] and in [7] were 4.63 µM and 3.51 µM, respectively. Besides, the TGI in assay [1] was 18.3 µM; in assay [2], 25.6 µM; in assay [9], 24.4 µM; in assay [3], 31.6 µM; in assay [4], 9.61 µM; in [5], 23.8 µM. Further, the TGI in [6] stood at 20.7 µM; in [7], 12.2 µM.
Consider `C/C(=C\c1ccccc1)C(O)S(=O)(=O)O` (stereo not drawn), for which the TGI in [1], in assay [2], in assay [3], in assay [4], in assay [5] and in assay [6] was above 100 µM each time. This molecule came in with a TGI in [8] above 100 µM.
As for `C=CC1(C)/C(=N\O)C(C)(CC)C(=O)N1O` (stereo not drawn), the TGI in assay [1], in assay [2], in assay [4], in [5], in assay [6] and in assay [7] was above 100 µM each time. This molecule also gave a TGI in [8] above 100 µM.
In the case of `COc1cccc(C(=O)O)c1Cc1cccc2ccccc12`, the TGI in [1], in assay [2], in [4], in assay [5], in [6] and in assay [8] was above 100 µM each time.
Regarding `COC(=O)/C1=C/C2CC(/C=C(/c3ccccc3)C(=O)O1)C2`, the TGI in assay [1] is 64.3 µM; in assay [2], 95 µM; in [3] it was 64.7 µM; in [4], above 100 µM; in assay [5], 67.4 µM; in assay [6], 60.6 µM. Besides, the TGI in assay [7] turned out to be 89.8 µM; in assay [8], 54.2 µM.
Consider `CP(=O)(CCSc1ccccc1)c1ccccc1` (stereo not drawn), for which the TGI in [1], in assay [2], in assay [3], in assay [4], in assay [5] and in assay [6] was above 100 µM each time. Also, the TGI in assay [7] and in assay [8] was above 100 µM each time.
For `O=S(O)CCCCSSCCCCS(=O)(O)=S`, the TGI was above 100 µM in assay [1]; above 100 µM in assay [2]; above 100 µM in assay [4]; 70.1 µM in assay [5]; above 100 µM in assay [7]; above 100 µM in assay [8].
`c1ccc2c(c1)[Se]c1ccccc1[Se]2`: the TGI in assay [1], in [2], in assay [3], in assay [4], in [5] and in assay [6] was above 100 µM in each case. The TGI in assay [7] and in assay [8] was above 100 µM throughout.
As for `CC(C)c1cccc2sc(NC(=O)C(=O)CC(=O)c3ccc(F)cc3)nc12`, the TGI in assay [1], in assay [2], in [3], in assay [4], in assay [5] and in assay [6] was above 100 µM in each case. Also, the TGI in assay [7] and in assay [8] was above 100 µM in each case.
`CN1NC(c2ccccc2)=C(C#N)C(=O)CC1c1ccccc1Cl` (stereo not drawn): the TGI was above 100 µM in assay [1]; 94.1 µM in [2]; above 100 µM in assay [3]; above 100 µM in [4]; above 100 µM in [6]; above 100 µM in [8].
`CCC(=O)[O-].CCC(=O)[O-].N.N.N.N.[Co+3].[O-][Cl+3]([O-])([O-])[O-]`: the GI50 in assay [1], in assay [2], in assay [3], in [4], in assay [5] and in assay [6] was above 100 µM each time. Further, the GI50 in assay [7] and in assay [8] was above 100 µM in each case. The TGI in assay [1], in assay [2], in [3], in [4], in assay [5] and in assay [6] was above 100 µM in each case. Besides, the TGI in assay [7] and in [8] was above 100 µM each time.
As for `CCCC(=O)C(CC)/C(CCC(=O)N(Cc1ccccc1)Cc1ccccc1)=N/NC(=O)C[N+](C)(C)C` (stereo not drawn), the TGI in assay [1], in assay [2], in [6], in assay [7] and in [8] was above 100 µM each time.
Take `NC(N)=NS(=O)(=O)c1ccc(NC(=O)c2ccc(Cl)c3c(Nc4ccc(S(=O)(=O)N=C(N)N)cc4)c4ccccc4nc23)cc1`: the TGI in assay [1], in assay [2], in assay [3], in assay [5], in assay [6] and in [7] was above 100 µM in each case. For the same molecule, the TGI in [8] is above 100 µM.
Consider `CCOc1ccccc1N=C(NC(=O)CC)SC`, for which the GI50 in assay [1] is above 10 µM; in assay [2], above 100 µM; in assay [3] it was above 10 µM; in assay [5] it was above 100 µM; in [6], above 100 µM; in assay [7], above 100 µM. Further, the GI50 in assay [8] was above 10 µM. Also, the TGI in [1] is above 100 µM; in [2] it was above 100 µM; in assay [3], above 100 µM; in [4], above 10 µM; in assay [5], above 100 µM; in [6], above 100 µM. For the same molecule, the TGI in [7] and in [8] was above 100 µM in each case.
